Test systems include EKVX NSCLC; A549 NSCLC; UO-31 renal; RPMI-8226 leukemia; SR leukemia.
Common to all, as to assay: NCI anticancer screen, dose series, 48 h

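Step 1: Grow cells in 96-well plates. Step 2: Expose to compound for 48 hours at 5 concentrations. Step 3: Interpolate endpoints linearly; if unreached, use highest concentration. GI50: concentration for 50% inhibition of growth. TGI: concentration producing complete growth inhibition.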 *1 amine or outer side, *2 acyl side, *3 side chain or, on linkers, in order; H or OH if unused. Where a SMILES comes first, the peptide text is derived from it. Bridges are numbered along the chain shown (N, C = ends). Roman numbers before positions name the chains, in order. [ ]: non-standard residue; d: D form. Actinocin(9to1) = Cc1c2oc3c(C)ccc(C(=O)[*:1])c3nc-2c(C(=O)[*:2])c(N)c1=O; NMeH = CN[CH](Cc1c[nH]cn1)C(=O)O; Sar = CNCC(=O)O

As for `Cc1c2oc3c(C)ccc(C(=O)NC4C(=O)NC(C(C)C)C(=O)N5CCCC5C(=O)N(C)CC(=O)N(C)C(Cc5cnc[nH]5)C(=O)OC4C)c3nc-2c(C(=O)NC2C(=O)NC(C(C)C)C(=O)N3CCCC3C(=O)N(C)CC(=O)N(C)C(Cc3cnc[nH]3)C(=O)OC2C)c(N)c1=O` (stereo unspecified) (I: TVP[Sar][NMeH] / II: TVP[Sar][NMeH]; ester I:1-I:C, II:1-II:C; linker I:N-II:N via Actinocin(9to1); configuration not given here), the TGI with EKVX NSCLC, with A549 NSCLC, in the experiment with UO-31 renal, with RPMI-8226 leukemia and with SR leukemia was more than 100 µM in each case.

In the case of `COC(=O)[C@@H]1CS(=O)(=O)C(C(C)C)N1C(C)=O` (stereo partly specified), the TGI in the experiment with EKVX NSCLC, with A549 NSCLC, in the experiment on UO-31 renal, in the experiment with RPMI-8226 leukemia and in the experiment on SR leukemia was more than 100 µM throughout.

Take `O=c1[nH]nc(-c2ccccc2)n1/N=C/c1ccc([N+](=O)[O-])o1`: the TGI in the experiment on EKVX NSCLC was 24 µM; in the experiment on A549 NSCLC, 21.9 µM; in the experiment on UO-31 renal it was 12.9 µM; in the experiment on RPMI-8226 leukemia it was 12.8 µM; with SR leukemia it was more than 100 µM.

For `COc1ccccc1-n1c(=O)n(C)c(=O)n1C(C)(C)C`, the TGI in the experiment with EKVX NSCLC, with A549 NSCLC, with UO-31 renal, in the experiment with RPMI-8226 leukemia and with SR leukemia was more than 100 µM throughout.

`Cc1ccc(S(=O)(=O)N2C[C@@H]3CC[C@]4(CO[Si](C)(C)C(C)(C)C)N[C@@H](c5ccccc5)[C@H]2[C@H]34)cc1`: the TGI is more than 100 µM in the experiment on EKVX NSCLC; more than 100 µM in the experiment with A549 NSCLC; more than 100 µM in the experiment on UO-31 renal; 46.8 µM with RPMI-8226 leukemia; more than 100 µM in the experiment with SR leukemia.

Regarding `C1=C(c2ccccc2)C(N2CCOCC2)Oc2ccccc21` (stereo unspecified), the TGI in the experiment on EKVX NSCLC, in the experiment with A549 NSCLC, in the experiment with UO-31 renal, in the experiment on RPMI-8226 leukemia and with SR leukemia was more than 100 µM throughout.

Turning to `CCn1c(=O)c2nc(SC)sc2n(-c2ccc(C)cc2)c1=O`, the GI50 with EKVX NSCLC is 71.4 µM. The TGI in the experiment with EKVX NSCLC, in the experiment on A549 NSCLC, with UO-31 renal, in the experiment with RPMI-8226 leukemia and in the experiment on SR leukemia was more than 100 µM throughout.

Consider `COC(=O)c1ccccc1C1CN=NC12Cc1c(ccc3c1CCC3)C2=O` (stereo unspecified), for which the TGI in the experiment on EKVX NSCLC was more than 100 µM; in the experiment on A549 NSCLC, more than 100 µM; in the experiment on UO-31 renal, more than 100 µM; in the experiment with RPMI-8226 leukemia, 86 µM; with SR leukemia it was more than 100 µM.

Take `Cc1cccc2c(N)c3cccc(C(=O)NCC[N+](C)(C)Cc4ccc([N+](=O)[O-])s4)c3nc12`: the TGI with EKVX NSCLC was 41.5 µM; with A549 NSCLC, 17.5 µM; with UO-31 renal, more than 74.7 µM; in the experiment on RPMI-8226 leukemia, 34.1 µM; in the experiment on SR leukemia it was 5.7 µM.

With `c1nc(NCCc2cnc[nH]2)c2[nH]cnc2n1`, the TGI with EKVX NSCLC, with A549 NSCLC, in the experiment with UO-31 renal, in the experiment with RPMI-8226 leukemia and with SR leukemia was more than 100 µM in each case.

For the molecule `C=C(C(=O)O[C@H]1C/C(C)=C/CC/C(CO)=C/[C@H]2C(=O)OC(=C)[C@H]12)C(O)CO` (stereo partly specified), the TGI in the experiment with EKVX NSCLC came to 36.5 µM; in the experiment on A549 NSCLC, 49.8 µM; with UO-31 renal it was 27.6 µM; in the experiment with RPMI-8226 leukemia, 4.95 µM; in the experiment with SR leukemia it was 6.81 µM.

For `CCCCc1ccc(Nc2ncc3ncn(COCCO)c3n2)cc1`, the TGI is 88.7 µM in the experiment with EKVX NSCLC; more than 100 µM in the experiment with A549 NSCLC; 59.1 µM with UO-31 renal; 50 µM in the experiment with RPMI-8226 leukemia; 52.5 µM in the experiment with SR leukemia.

In the case of `COc1ccc(-n2c(=O)c3[nH]c(=S)[nH]c3n(-c3ccc(OC)cc3)c2=S)cc1`, the TGI with EKVX NSCLC, with A549 NSCLC, in the experiment on UO-31 renal, in the experiment on RPMI-8226 leukemia and with SR leukemia was more than 100 µM each time.

On to `C1=NCCNCCNCCN=Cc2ccc(cc2)OCc2cccc(n2)COc2ccc1cc2`, for which the TGI in the experiment with EKVX NSCLC, in the experiment on A549 NSCLC, in the experiment with UO-31 renal, with RPMI-8226 leukemia and in the experiment on SR leukemia was more than 100 µM each time.

Consider `CSC(=S)Nc1cc(C)cc(C)n1`, for which the TGI in the experiment with EKVX NSCLC is more than 31.6 µM; with A549 NSCLC, more than 31.6 µM; in the experiment on UO-31 renal, more than 31.6 µM; with RPMI-8226 leukemia, more than 31.6 µM; with SR leukemia, more than 10 µM.

As for `N#CC1(C#N)C(C#N)(C#N)C1(C#N)C(N)=O`, the TGI in the experiment with EKVX NSCLC, in the experiment on A549 NSCLC, in the experiment with UO-31 renal, in the experiment with RPMI-8226 leukemia and in the experiment with SR leukemia was more than 100 µM each time.
